# Literature values as cited in paper PMC7395068, “The evolution of strategies to minimise the risk of human drug-induced liver injury (DILI) in drug discovery and development” (Archives of Toxicology, 2020).
# Read-outs that look alike come from different tables or passages of the source. *1 amine or outer side, *2 acyl side, *3 side chain or, on linkers, in order; H or OH if unused. Where a SMILES comes first, the peptide text is derived from it. Bridges are numbered along the chain shown (N, C = ends). Roman numbers before positions name the chains, in order. [ ]: non-standard residue; d: D form. Actinocin(9to1) = Cc1c2oc3c(C)ccc(C(=O)[*:1])c3nc-2c(C(=O)[*:2])c(N)c1=O; NMeV = CN[C@H](C(=O)O)C(C)C; Sar = CNCC(=O)O
# Experiments:
# [1] = tested on: primary human hepatocytes, NIH3T3 fibroblasts, BSEP, CYP3A4; settings: In vitro Assay; ref Schadt 2015; cited from earlier work
# [2] = cited from earlier work
# [3] = cited from earlier work; remark: listed apart in the source
Compound,In vivo DILI ([2]; in vivo),"DILI +VE (5-8), DILI -VE (-4) ([3]; in vivo)",DILI severity category ([3]; in vivo),In vivo DILI ([2]; […]),"DILI +VE (5-8), DILI -VE (-4) ([3]; ref Chen 2016)",DILI severity category ([3]; ref Chen 2016),other results
COCCCOc1cc(C[C@@H](C[C@H](N)[C@@H](O)C[C@H](C(=O)NCC(C)(C)C(N)=O)C(C)C)C(C)C)ccc1OC [aliskiren],,,,,,,Cellular toxicity (3T3 cells) [1]: -VE; Combined Assay [1]: -VE; GSH adduct HML [1]: -VE; Hepatocyte cellular toxicity [1]: -VE; MitoTox 3T3 [1]: -VE; TDI CYP3A4 [1]: -VE; hBSEP inhibition [1]: -VE
C[C@H]1[C@H](NC(=O)/C(=N\OC(C)(C)C(=O)O)c2csc(N)n2)C(=O)N1S(=O)(=O)O [aztreonam],-VE,-VE,Ambiguous DILI-concern,,,,
Oc1ccc2c(c1)[C@@]13CCCC[C@@]1(O)[C@@H](C2)N(CC1CCC1)CC3 [butorphanol],,,,-VE,-VE,vNo-DILI-Concern,
CCN1CCN(C(=O)N[C@@H](C(=O)N[C@@H]2C(=O)N3C(C(=O)O)=C(CSc4nnnn4C)CS[C@H]23)c2ccc(O)cc2)C(=O)C1=O [cefoperazone],-VE,+VE,vLess-DILI-Concern,,,,
CO/N=C(\C(=O)N[C@@H]1C(=O)N2C(C(=O)O)=C(CSc3nc(=O)c(=O)[nH]n3C)CS[C@H]12)c1csc(N)n1 [ceftriaxone],,,,-VE,+VE,vLess-DILI-Concern,
O=C(N[C@H](CO)[C@H](O)c1ccc([N+](=O)[O-])cc1)C(Cl)Cl [chloramphenicol],+VE,-VE,vNo-DILI-Concern,,,,
O=C1CCc2cc(OCCCCc3nnnn3C3CCCCC3)ccc2N1 [cilostazol],,,,-VE,-VE,Ambiguous DILI-concern,
"Cc1c2oc3c(C)ccc(C(=O)N[C@@H]4C(=O)N[C@H](C(C)C)C(=O)N5CCC[C@H]5C(=O)N(C)CC(=O)N(C)[C@@H](C(C)C)C(=O)O[C@@H]4C)c3nc-2c(C(=O)N[C@@H]2C(=O)N[C@H](C(C)C)C(=O)N3CCC[C@H]3C(=O)N(C)CC(=O)N(C)[C@@H](C(C)C)C(=O)O[C@@H]2C)c(N)c1=O [dactinomycin] (I: T[dV]P[Sar][NMeV] / II: T[dV]P[Sar][NMeV]; ester I:1-I:C, II:1-II:C; linker I:N-II:N via Actinocin(9to1))",+VE,+VE,vMost-DILI-Concern,,,,
CN(CCOc1ccc(NS(C)(=O)=O)cc1)CCc1ccc(NS(C)(=O)=O)cc1 [dofetilide],-VE,-VE,vNo-DILI-Concern,,,,
CCCCc1oc2ccc(NS(C)(=O)=O)cc2c1C(=O)c1ccc(OCCCN(CCCC)CCCC)cc1 [dronedaron],,,,,,,Cellular toxicity (3T3 cells) [1]: +VE; Combined Assay [1]: -VE; GSH adduct HML [1]: -VE; Hepatocyte cellular toxicity [1]: -VE; MitoTox 3T3 [1]: -VE; TDI CYP3A4 [1]: -VE; hBSEP inhibition [1]: -VE; In vivo DILI ([2]; ref Schadt 2015): +VE
C[C@]12CC[C@@H]3c4ccc(O)cc4CC[C@H]3[C@@H]1CCC2=O [estrone],+VE,-VE,Ambiguous DILI-concern,,,,
CC(O)(P(=O)(O)O)P(=O)(O)O [etidronic acid],,,,-VE,-VE,vNo-DILI-Concern,
CC(C)n1c(/C=C/C(O)CC(O)CC(=O)O)c(-c2ccc(F)cc2)c2ccccc21 (stereo not shown) [fluvastatin],,,,,+VE,vLess-DILI-Concern,In vivo DILI ([2]; ref O'Brien 2006): -VE; In vivo DILI ([2]; ref Xu 2008): -VE
Nc1nnc(-c2cccc(Cl)c2Cl)c(N)n1 [lamotrigine],,,,+VE,+VE,vMost-DILI-Concern,
Cc1cccc(CN2CCN(C(c3ccccc3)c3ccc(Cl)cc3)CC2)c1 (stereo not shown) [meclizine],,,,-VE,-VE,vNo-DILI-Concern,
CCOC(=O)C1(c2ccccc2)CCN(C)CC1 [meperidine],-VE,-VE,vNo-DILI-Concern,,,,
Cc1cccc(C)c1NC(=O)C1CCCCN1C (stereo not shown) [mepivacaine],,,,-VE,-VE,vNo-DILI-Concern,
C[C@@H](O)[C@H]1C(=O)N2C(C(=O)O)=C(S[C@@H]3CN[C@H](C(=O)N(C)C)C3)[C@H](C)[C@H]12 [meropenem],,,,+VE,+VE,vLess-DILI-Concern,
CN[C@@H](C)Cc1ccccc1 [methamphetamine],,,,-VE,-VE,vNo-DILI-Concern,
COc1ccccc1OCC(O)COC(N)=O (stereo not shown) [methocarbamol],,,,-VE,-VE,Ambiguous DILI-concern,
C[C@](N)(Cc1ccc(O)cc1)C(=O)O [metyrosine],,,,-VE,-VE,vNo-DILI-Concern,
